Columns and labels:
5-lipoxygenase = target: T1, 5-lipoxygenase (Cavia porcellus, UniProt A0A286X958); assay: 5-Lipoxygenase (5-LPO) Assay, inhibition of 5-HETE formation in PMNL sonicate supernatant; assay type: biochemical, guinea pig; conditions: for IC50: guinea pig PMNL sonicate supernatant, 37° C., 5 μM 14C-arachidonic acid
T1 construct: incubating 0.2 ml of the supernatant obtained from the PMNL sonicate with the test compound; from tissue; host or cells: casein-elicited guinea pig peritoneal polymorphonuclear leukocytes (PMNL, more than 95 percent of the cells), sonicated, 30,000 x g supernatant
T1 sequence (A0A286X958 1-674): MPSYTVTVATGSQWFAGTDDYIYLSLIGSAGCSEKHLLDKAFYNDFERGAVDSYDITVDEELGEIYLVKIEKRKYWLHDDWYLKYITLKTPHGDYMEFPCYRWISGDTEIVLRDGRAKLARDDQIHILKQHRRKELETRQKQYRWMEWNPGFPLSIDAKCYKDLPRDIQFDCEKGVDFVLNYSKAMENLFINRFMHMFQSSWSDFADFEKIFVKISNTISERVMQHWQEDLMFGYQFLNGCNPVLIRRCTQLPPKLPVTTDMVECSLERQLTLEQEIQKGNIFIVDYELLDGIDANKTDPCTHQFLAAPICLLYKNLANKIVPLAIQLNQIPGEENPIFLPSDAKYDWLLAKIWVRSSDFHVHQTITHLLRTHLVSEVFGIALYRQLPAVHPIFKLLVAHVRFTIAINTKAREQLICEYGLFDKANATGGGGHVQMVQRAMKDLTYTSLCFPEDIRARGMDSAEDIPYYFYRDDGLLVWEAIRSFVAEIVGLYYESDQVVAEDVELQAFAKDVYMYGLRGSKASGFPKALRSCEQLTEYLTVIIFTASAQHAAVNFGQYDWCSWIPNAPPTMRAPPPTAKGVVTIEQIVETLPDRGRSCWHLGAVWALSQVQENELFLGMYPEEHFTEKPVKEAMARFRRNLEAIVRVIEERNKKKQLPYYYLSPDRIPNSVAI
Protocol: 5-Lipoxygenase (5-LPO) Assay
Ten milliliters of a 2% casein solution were injected intraperitoneally into guinea pigs weighing 250-300 gm. After 16-18 hours, the guinea pigs were killed by suffocation in a carbon dioxide chamber. The peritoneal cavity was infused with 70 ml of saline and 40-50 ml of the fluid were recovered from the cavity. After centrifugation, cell pellets were washed twice in Hank's balanced salt solution (HBSS) without calcium ion.
The cells were then suspended in 5 ml of sodium phosphate buffer, pH 7.1 containing 1 mM EDTA, and 0.1% gelatin. About 20-30×10^7 cells were obtained from one guinea pig.
The PMNL suspension was disrupted by five 1/2 second pulse sonications at the setting of 3 in a Branson Sonifier, Model 350, equipped with a microtip. The sonicates were combined and centrifuged at 30,000× g for 10 minutes. The supernatant was kept frozen at -70° C. until use.
Enzyme activity was determined by assaying for 5-HETE formation by first incubating 0.2 ml of the supernatant obtained from the PMNL sonicate with the test compound, 1 mM CaCl2, 2 mM ATP, and 1 mM GSH for 5 minutes at 37° C. The mixture is treated with 5 μM ^14 C-arachidonicacid and incubated at 37° C. an additional 10 minutes. The enzyme reaction was then stopped by the addition of 10 μl of 1M citric acid and 10μl of an alcohol solution containing 20 mg/ml each of indomethacin and butylated hydroxyanisole (BHA). The reaction mixture was spotted (50 μl on a silica gel plate (Baker TLC plate S1250-PA-19C) and subjected to TLC in a solvent system of ethyl acetate/2,2,4-trimethylpentane/glacial acetic acid/water (90:50:20:100).
The radioactivity of the arachidonic acid and its metabolites (5-HETE and LTB4) was visualized from a developed x-ray film which had been exposed to the TLC plate 1-2 days. The amount of 5-HETE formed was quantitated by scraping the silica gel area corresponding to the spot on the x-ray film, and the radioactivity determined in a Isocap/300 liquid scintillation counter (Searle Analytic, Inc.).
The percent inhibition of the formation of 5-HETE was determined for each concentration of test compound tested as compared to a control experiment wherein no test compound was added. The concentration and percent inhibition values were plotted on semi log paper and the concentration in which formation of 5-HETE is inhibited by 50% (IC50) was determined by interpolation.

[1] = target: T2, fatty acid cyclooxygenase (Homo sapiens, UniProt P23219); assay: Fatty Acid Cyclooxygenase (FCO) Assay, inhibition of PGE2 formation by purified human platelet enzyme; assay type: biochemical; conditions: for IC50: human platelet microsomal enzyme, pH 8.0, 37° C.; for inhibition at 30 µg/mL: percent inhibition at 30 μg/ml
T2 construct: The solubilized fatty acid cyclooxygenase was applied to a 440 ml electrofocusing column; from tissue; host or cells: human platelets: microsomes solubilized with Triton X-100, purified by electrofocusing and G-200 Sephadex
Protocol: Fatty Acid Cyclooxygenase (FCO) Assay
Microsomes were prepared from 185 bags of human platelets (each bag containing the platelets from one pint of blood prepared using differential centrifugation procedures). The platelets from approximately 60 bags were prepared at one time. Platelet-rich plasma (500 g) was centrifuged at 10,000×g for 20 minutes, and the platelet pellet was suspended in 100 ml of 0.1M potassium phosphate buffer, pH 8.0, with a Teflon glass homogenizer and sonicated for 5.0 minutes with a Bronson Sonifier (Model 350) in a rosette flask cooled in ice water. Disrupted platelets were centrifuged 15 minutes at 10,000× g. The supernatant was centrifuged at 100,000× g for 90 minutes and the microsomal pellets were homogenized in 25 ml of 20% sucrose containing 1.0% Triton X-100 detergent. After 30 minutes at 4° C., the solubilized microsomes were centrifuged at 100,000× g for 60 minutes. The yellow supernatant was removed and stored at -70 ° C.
The solubilized fatty acid cyclooxygenase was applied to a 440 ml electrofocusing column (LKB-8012) containing 1% phisolytes (Brinkman Instruments, Westburgh, NY), pH 2-11, with the cathode at the top of the column. The enzyme was layered onto the column at the appropriate time so that its sucrose concentration was equal to that of the column gradient. This was accomplished by checking the gradient concentration periodically with a sucrose hand refractometer. Electrofocusing was carried out for 16 hours with an initial voltage of 400 V and a final voltage of 900-1,000 volts. Fractions were collected (20 ml) and assayed for PGE2 formation. Active peak fractions were pooled and concentrated by ultrafiltration (XM 100A) to a volume of 3-5 ml.
Active fractions from electrofocusing were applied to a G-200 Sephadex column (2 cm×46 cm) and eluted with 10 mM potassium phosphate buffer, pH 7.0, in 5 ml fractions. After assay, active fractions were poored and concentrated to 1.0 ml by ultrafiltration (XM 100A), and kept frozen at -70° C.
Enzyme activity was determined by assaying for PGE2 formation by preincubating the enzyme with 10 mmol/l imidazole phosphate buffer, pH 8.0, 2 mmol/l epinephrine, 2 mmol/l methemoglobin, and the test compound (30 μg/ml) in a total volume of 0.2 ml for one minute at 37° C. After preincubation, 5 mmol/l ^14 C-arachidonic acid were added and the mixture was incubated an additional 0.5 minutes at 37° C. The enzyme reaction was stopped by the addition of 2 μl of indomethacin (2 mg/ml) in alcohol.
The reaction mixture was spotted (50 μl) on a silica gel (LQ6D) plate and subjected to TLC. The solvent system consisted of chloroform-methanol-glacial acetic acid (90:5:5, v/v/v) and the relative mobilities were PGF2α =0.235, and PGE2 =0.47. The silica gel on the plate was scraped in 1 cm sections, suspended in 5 ml of the scintillation fluid [5.88 g of 2,5-diphenyloxazole and 118 mg of 1,4 -bis(5-phenyloxazol-2-yl)benzene] dissolved in 650 ml of toluene and 350 ml of Triton X-100) and the radioactivity was determined in an Isocap/300 liquid scintillation counter (Searle Analytic, Inc., Southfield, Mich.). Another 50 μl of the mixture was added to 10 ml of the Triton X-100 based scintillation fluid, and the radioactivity was determined so that the amount of radioactivity recovery from the TLC plate could be ascertained. PGE2 formation for each test compound was determined as a percent of control experiments wherein no test compound was added. Data is expressed in Table I either as the percent inhibition of formation of PGE2 at a test compound concentration of 30 μ g/ml, or as an IC50 for inhibition of PGE2 formation.

T2 sequence (P23219 24-599): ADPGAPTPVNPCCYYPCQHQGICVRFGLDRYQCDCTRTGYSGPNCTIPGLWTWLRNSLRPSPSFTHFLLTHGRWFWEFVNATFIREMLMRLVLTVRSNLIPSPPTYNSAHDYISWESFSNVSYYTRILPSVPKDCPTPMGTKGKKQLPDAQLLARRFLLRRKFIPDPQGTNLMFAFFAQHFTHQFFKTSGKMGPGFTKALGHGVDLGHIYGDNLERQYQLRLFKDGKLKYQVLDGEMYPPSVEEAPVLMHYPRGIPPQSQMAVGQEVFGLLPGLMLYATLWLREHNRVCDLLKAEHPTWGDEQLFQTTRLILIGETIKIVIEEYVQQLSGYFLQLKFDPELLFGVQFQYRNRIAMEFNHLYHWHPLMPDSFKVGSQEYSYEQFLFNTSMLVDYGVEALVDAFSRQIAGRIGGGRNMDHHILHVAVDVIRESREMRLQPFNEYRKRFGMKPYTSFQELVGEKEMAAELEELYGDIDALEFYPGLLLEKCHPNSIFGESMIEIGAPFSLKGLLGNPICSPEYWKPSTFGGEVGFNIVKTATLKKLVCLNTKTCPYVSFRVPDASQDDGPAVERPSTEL

SMILES	IC50 (5-lipoxygenase) [µM]	IC50 [1] [µM]	inhibition at 30 µg/mL [1] [%]	inhibition at 30 µg/mL (5-lipoxygenase; percent inhibition at 30 μg/ml) [%]
CCCc1c(OC)ccc(C(=O)c2ccccc2O)c1O [Example 3, (2-Hydroxy-4-methoxy-3-propylphenyl)(2-hydroxyphenyl)methanone]	1.05	4.89	–	–
CCCc1c(OCCCCCC#N)ccc(C(=O)c2ccccc2O)c1O [Example 13, 6-[3-Hydroxy-4-(2-hydroxybenzoyl)-2-propylphenoxy]hexanenitrile]	5.44	–	40	–
CCCc1c(OCCCCc2nnnn2C)ccc(C(=O)c2ccccc2OC)c1O [Example 33, (2-Hydroxy-4-[4-(1-methyl-1H-tetrazol-5-yl)butoxy]3-propylphenyl)(2-methoxyphenyl)methanone]	0.707	–	0	–

Now from value to compound:

IC50 (5-lipoxygenase) [µM]	IC50 [1] [µM]	inhibition at 30 µg/mL [1] [%]	inhibition at 30 µg/mL (5-lipoxygenase; percent inhibition at 30 μg/ml) [%]	SMILES
22.5	32.1	–	–	CCCc1c(OCC#N)ccc(C(=O)c2ccccc2O)c1O [Example 12]
–	–	48	94	CCCc1c(OCc2ccc(C#N)cc2)ccc(C(=O)c2ccccc2O)c1O [Example 17, 4-([3-Hydroxy-4-(2-hydroxybenzoyl)-2-propylphenoxy]methyl)benzonitrile]

— patent US4801616A, “Diphenylmethanone compounds and anti-inflammatory use thereof” (Eli Lilly and Company, priority 1986, dated 1989)
